Results taken from patent publication US7417156B2, “Orally active, antimalarial, anticancer, artemisinin-derived trioxane dimers” (Johns Hopkins University, priority 2002, dated 2008).

What was measured:
SNB-75 = assay: NCI 60 cell line panel screen (SRB); format: cell-based, human; conditions: SNB-75 (CNS Cancer)
RPMI-8226 = assay: NCI 60 cell line panel screen (SRB); format: cell-based, human
SF-268 = assay: NCI 60 cell line panel screen (SRB); format: cell-based, human
HT29 = assay: NCI 60 cell line panel screen (SRB); format: cell-based, human
PC-3 = assay: NCI 60 cell line panel screen (SRB); format: cell-based, human
NCI-H23 = assay: NCI 60 cell line panel screen (SRB); format: cell-based, human
MALME-3M = assay: NCI 60 cell line panel screen (SRB); format: cell-based, human
NCI-H322M = format: cell-based
IGROVI = assay: NCI 60 cell line panel screen (SRB); format: cell-based, human
OVCAR-3 = assay: NCI 60 cell line panel screen (SRB); format: cell-based, human
HOP-92 = assay: NCI 60 cell line panel screen (SRB); format: cell-based, human
NCI/ADR-RES = assay: NCI 60 cell line panel screen (SRB); format: cell-based, human
OVCAR-8 = assay: NCI 60 cell line panel screen (SRB); format: cell-based, human
MDA-MB-435 = assay: NCI 60 cell line panel screen (SRB); format: cell-based, human
A549/ATCC = assay: NCI 60 cell line panel screen (SRB); format: cell-based, human
TK-10 = assay: NCI 60 cell line panel screen (SRB); format: cell-based, human
60 cell line panel = format: cell-based
HOP-62 = assay: NCI 60 cell line panel screen (SRB); format: cell-based, human
K-562 = assay: NCI 60 cell line panel screen (SRB); format: cell-based, human
HCT-116 = assay: NCI 60 cell line panel screen (SRB); format: cell-based, human
SK-MEL-28 = assay: NCI 60 cell line panel screen (SRB); format: cell-based, human
U251 = assay: NCI 60 cell line panel screen (SRB); format: cell-based, human; conditions: U251 (CNS Cancer)
M14 = assay: NCI 60 cell line panel screen (SRB); format: cell-based, human; conditions: M-14 (Melanoma); TGI: PG=0
SF-539 = assay: NCI 60 cell line panel screen (SRB); format: cell-based, human
[1] = mean value over the 60 cell line panel

C[C@@H]1CC[C@H]2[C@@H](C)C(CC(O)(COC(=O)CCC(=O)O)CC3OC4O[C@]5(C)CC[C@H]6[C@H](C)CC[C@@H]([C@H]3C)C46OO5)OC3O[C@]4(C)CCC1C32OO4 (stereo partly shown) [Compound 9, tertiary alcohol primary succinate ester]
Log10LC50 (SNB-75; LC50: PG=−50): >−4.30 log10M
Log10TGI50 (SNB-75; TGI: PG=0): >−4.30 log10M
Log10GI50 (RPMI-8226; Leukemia, RPMI-8226): <−8.30
Log10LC50 (RPMI-8226; RPMI-8226 (Leukemia), LC50: PG=−50): >−4.30 log10M
Log10TGI50 (RPMI-8226; RPMI-8226 (Leukemia), TGI: PG=0): >−4.30 log10M
Log10GI50 (SF-268; CNS Cancer, SF-268): −5.48
Log10LC50 (SF-268; SF-268 (CNS Cancer), LC50: PG=−50): >−4.30 log10M
Log10TGI50 (SF-268; SF-268 (CNS Cancer), TGI: PG=0): >−4.30 log10M
Log10GI50 (HT29; Colon Cancer, HT29): <−8.30
Log10LC50 (HT29; HT29 (Colon Cancer), LC50: PG=−50): >−4.30 log10M
Log10LC50 (PC-3; PC-3 (Prostate Cancer), LC50: PG=−50): >−4.30 log10M
Log10TGI50 (PC-3; PC-3 (Prostate Cancer), TGI: PG=0): >−4.30 log10M
Log10GI50 (PC-3; Prostate Cancer, PC-3): <−8.30
Log10LC50 (NCI-H23; NCI-H23 (Non-Small Cell Lung Cancer), LC50: PG=−50): >−4.30 log10M
Log10TGI50 (NCI-H23; NCI-H23 (Non-Small Cell Lung Cancer), TGI: PG=0): −4.65 log10M
Log10GI50 (NCI-H23; Non-Small Cell Lung Cancer, NCI-H23): <−8.30
Log10LC50 (MALME-3M; MALME-3M (Melanoma), LC50: PG=−50): >−4.30 log10M
Log10TGI50 (MALME-3M; MALME-3M (Melanoma), TGI: PG=0): −5.14 log10M
Log10GI50 (MALME-3M; Melanoma, MALME-3M): <−8.30
Log10TGI50 (NCI-H322M; NCI-H322M (Non-Small Cell Lung Cancer), TGI: PG=0): >−4.30 log10M
Log10GI50 (NCI-H322M; Non-Small Cell Lung Cancer, NCI-H322M): −5.07
Log10LC50 (IGROVI; IGROVI (Ovarian Cancer), LC50: PG=−50): >−4.30 log10M
Log10TGI50 (IGROVI; IGROVI (Ovarian Cancer), TGI: PG=0): >−4.30 log10M
Log10GI50 (IGROVI; Ovarian Cancer, IGROVI): −4.97
Log10LC50 (OVCAR-3; OVCAR-3 (Ovarian Cancer), LC50: PG=−50): >−4.30 log10M
Log10TGI50 (OVCAR-3; OVCAR-3 (Ovarian Cancer), TGI: PG=0): <−8.30 log10M
Log10GI50 (OVCAR-3; Ovarian Cancer, OVCAR-3): <−8.30
Log10LC50 (HOP-92; HOP-92 (Non-Small Cell Lung Cancer), LC50: PG=−50): >−4.30 log10M
Log10TGI50 (HOP-92; HOP-92 (Non-Small Cell Lung Cancer), TGI: PG=0): >−4.30 log10M
Log10GI50 (HOP-92; Non-Small Cell Lung Cancer, HOP-92): <−8.30
Log10GI50 (NCI/ADR-RES; Breast Cancer, NCI/ADR-RES): −5.61
Log10LC50 (NCI/ADR-RES; NCI/ADR-RES (Breast Cancer), LC50: PG=−50): >−4.30 log10M
Log10TGI50 (NCI/ADR-RES; NCI/ADR-RES (Breast Cancer), TGI: PG=0): >−4.30 log10M
Log10LC50 (OVCAR-8; OVCAR-8 (Ovarian Cancer), LC50: PG=−50): >−4.30 log10M
Log10TGI50 (OVCAR-8; OVCAR-8 (Ovarian Cancer), TGI: PG=0): >−4.30 log10M
Log10GI50 (OVCAR-8; Ovarian Cancer, OVCAR-8): −5.12
Log10GI50 (MDA-MB-435; Breast Cancer, MDA-MB-435): <−8.30
Log10LC50 (MDA-MB-435; MDA-MB-435 (Breast Cancer), LC50: PG=−50): >−4.30 log10M
Log10TGI50 (MDA-MB-435; MDA-MB-435 (Breast Cancer), TGI: PG=0): >−4.30 log10M
Log10LC50 (A549/ATCC; A549/ATCC (Non-Small Cell Lung Cancer), LC50: PG=−50): >−4.30 log10M
Log10TGI50 (A549/ATCC; A549/ATCC (Non-Small Cell Lung Cancer), TGI: PG=0): >−4.30 log10M
Log10GI50 (A549/ATCC; Non-Small Cell Lung Cancer, A549/ATCC): −4.86
Log10GI50 (TK-10; Renal Cancer, TK-10): <−8.30
Log10LC50 (TK-10; TK-10 (Renal Cancer), LC50: PG=−50): >−4.30 log10M
Log10TGI50 (TK-10; TK-10 (Renal Cancer), TGI: PG=0): −4.60 log10M
Log10GI50 Delta (60 cell line panel): 1.28
Log10GI50 Range (60 cell line panel): 3.94
Log10LC50 Delta (60 cell line panel; 60 cell line panel): 0.29
Log10LC50 Range (60 cell line panel; 60 cell line panel): 0.30
Log10TGI50 Delta (60 cell line panel; 60 cell line panel): 3.58
Log10TGI50 Range (60 cell line panel; 60 cell line panel): 4.00
growth inhibition in words (60 cell line panel; colon cancer KM12, ovarian cancer OVCAR 3, breast cancer MDA-MB-435): selectively and strong inhibitory
Log10GI50 MG MID (60 cell line panel; mean over panel): −7.02
Log10LC50 MG MID (60 cell line panel; [1]): −4.31 log10M
Log10TGI50 MG MID (60 cell line panel; [1]): −4.72 log10M
Log10LC50 (HOP-62; HOP-62 (Non-Small Cell Lung Cancer), LC50: PG=−50): >−4.30 log10M
Log10TGI50 (HOP-62; HOP-62 (Non-Small Cell Lung Cancer), TGI: PG=0): >−4.30 log10M
Log10GI50 (HOP-62; Non-Small Cell Lung Cancer, HOP-62): −5.69
Log10LC50 (K-562; K-562 (Leukemia), LC50: PG=−50): >−4.30 log10M
Log10TGI50 (K-562; K-562 (Leukemia), TGI: PG=0): >−4.30 log10M
Log10GI50 (K-562; Leukemia, K-562): −8.30
Log10GI50 (HCT-116; Colon Cancer, HCT-116): <−8.30
Log10LC50 (HCT-116; HCT-116 (Colon Cancer), LC50: PG=−50): >−4.30 log10M
Log10TGI50 (HCT-116; HCT-116 (Colon Cancer), TGI: PG=0): >−4.30 log10M
Log10GI50 (SK-MEL-28; Melanoma, SK-MEL-28): <−8.30
Log10LC50 (SK-MEL-28; SK-MEL-28 (Melanoma), LC50: PG=−50): >−4.30 log10M
Log10TGI50 (SK-MEL-28; SK-MEL-28 (Melanoma), TGI: PG=0): >−4.30 log10M
Log10LC50 (U251; LC50: PG=−50): >−4.30 log10M
Log10TGI50 (U251; TGI: PG=0): −4.75 log10M
Log10TGI50 (M14): >−4.30 log10M
Log10GI50 (SF-539; CNS Cancer, SF-539): −4.90
Log10LC50 (SF-539; SF-539 (CNS Cancer), LC50: PG=−50): >−4.30 log10M
Log10TGI50 (SF-539; SF-539 (CNS Cancer), TGI: PG=0): −4.50 log10M
